A word on the IC50: it is the point on the concentration scale where inhibition reaches its midpoint. For orientation: IC10 means the concentration needed for an effect of 10%. What is called IC20 is the point of the concentration-response curve where the effect stands at 20%.

The target of one assay is T1, hyaluronidase (Bos taurus, UniProt Q2YDK3).
T1 sequence (Q2YDK3 36-553): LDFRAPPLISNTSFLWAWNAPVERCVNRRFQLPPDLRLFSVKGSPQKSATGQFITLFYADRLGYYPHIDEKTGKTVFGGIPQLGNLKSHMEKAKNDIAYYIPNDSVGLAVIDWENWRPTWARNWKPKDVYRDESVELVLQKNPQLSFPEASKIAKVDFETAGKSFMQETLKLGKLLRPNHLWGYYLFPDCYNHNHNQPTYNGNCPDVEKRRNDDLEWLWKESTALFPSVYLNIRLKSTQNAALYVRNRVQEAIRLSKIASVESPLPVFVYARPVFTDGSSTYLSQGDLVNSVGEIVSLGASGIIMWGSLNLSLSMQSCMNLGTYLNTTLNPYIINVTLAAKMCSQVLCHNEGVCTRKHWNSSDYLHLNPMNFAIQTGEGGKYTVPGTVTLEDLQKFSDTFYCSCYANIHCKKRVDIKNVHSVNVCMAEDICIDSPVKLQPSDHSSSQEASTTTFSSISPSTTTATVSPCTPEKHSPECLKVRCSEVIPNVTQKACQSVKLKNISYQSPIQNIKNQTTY
Put plainly: Anti-hyaluronidase activity (modified Morgan-Elson method). In kind it is biochemical. As to conditions: for IC50: hyaluronidase 340NF unit/ml, activating agent Compound 48/80 or CaCl2, read-out: IC50; for IC10: value marked (IC10), read-out: IC10 (printed in IC50 (mM) column); for IC20: value marked (IC20), read-out: IC20 (printed in IC50 (mM) column).

The subject of assay [1] is experimental ulcer model (Shay). Description: Anti-ulcer activity in experimental ulcer model (Shay). In kind it is in vivo, Wistar strain male rats. The protocol: Using 5 eight-week old Wistar strain male rats of 1 group, the rats were previously fasted for […]. The compound of an amount proportionate to the body weight based on the body weight after fasting was administered intraduodenally or intraperitoneally.
Each test compound was evenly suspended or dissolved in an aqueous solution of 0.5% CMC ccntaining 0.1% Tween 80, and administered at the rate of 0.5 ml per 100 g of body weight of the animal. To the controls, only the solvent was administered.
Test was carried out in accordance with Shay's method. After 48 hours' fasting, 5 animals per group were subjected to laparotomy under ether anesthesia, the tract between pylorus of stomach and duodenum was ligated, and the solution of the compound was administered intraduodenally (id) or intraperitoneally (ip), followed by suturing the laparotomy part. Eight hours after administration of the compound liquid, each animal was sacrificed by ether anesthesia and stomach was removed. Then, evaluation on the ulcer condition on the inner surface of stomach, and determination of the amount of gastric juice, of acidity by alkali titration, and of pepsin titer based on substrate of hemoglovin were made on the stored gastric juice. With regard to the acidity, gastric juice amount, and pepsin titer, the results were shown in inhibition rate (%) based on the average value of the control groups.

For assay [2], the system named is passive cutaneous anaphylaxis (PCA). Description: Anti-passive cutaneous anaphylaxis (PCA) activity in rats (Test Example 2). In kind it is in vivo, Wistar strain rats. As to conditions: Rattus norvegicus, N 10; for inhibition in vivo at 50 mg/kg: 50 mg/kg PO; for inhibition in vivo at 100 mg/kg: 100 mg/kg PO. The protocol: Wistar strain rats were sensitized with ovalbumin using aluminium hydroxide gel and Bordetella Pertussis vaccine as adjuvants. Dilutions of antiserum (16-fold and 32-fold) obtained by collecting blood samples 14 days later were administered subcutaneously in the dorsal skin of the rats of the same strain at the rate of 0.1 ml per spot, and the rats were grown for 48 hours. One hour after peroral administration of the sample solution, a mixture of antigen ovalbumin and Evans-blue dye was administered to the tail venous of the animal according to the ordinary procedure. Thirty minutes later, the animals were sacrificed by exsanguination, and the areas of blue spots (long diameter×short diameter) eliciting on the portion of the antiserum injection at the dorsal skin were measured to obtain the rate of inhibition based on the average value shown by the control animals.

Where [3] appears, read: read-out: Average Inhibition Rate (%) Antiserum Dilution: × 16.
Where [4] appears, read: read-out: Average Inhibition Rate (%) Antiserum Dilution: × 32.

Where two headings read alike, the source gives them in different places.

Regarding `O=C(Nc1ccccc1C(=O)O)C(=Cc1ccccc1)C(=O)Nc1cc(Cl)ccc1C(=O)O` [Compound 46, 4-chloro-2,2'-[(1,3-dioxo-2-phenylmethylene-1,3-propanediyl)diimimo]bisbenzoic acid], the IC50 on hyaluronidase worked out at 30 µM.

Take `CCOC(=O)c1ccccc1NC(=O)CC(=O)Nc1ccccc1C(=O)OCC` [Compound 04]: the IC10 on hyaluronidase is 0.015 mM.

Regarding `Cn1cc(C=C(C(=O)Nc2ccccc2C(=O)O)C(=O)Nc2ccccc2C(=O)O)c2ccccc21` [Compound 45], at hyaluronidase, the IC50 came to 10 µM.

Consider `COc1ccc(C(=O)O)cc1NC(=O)C(=Cc1ccccc1)C(=O)Nc1cc(C(=O)O)ccc1OC` [Compound 18], for which the 10% effect concentration (IC10) on hyaluronidase was determined as 0.29 mM.

As for `O=C(Nc1ccccc1C(=O)O)C(=Cc1cccnc1)C(=O)Nc1ccccc1C(=O)O` [Compound 44], the IC50 at hyaluronidase came out at 73 µM.

For `N#Cc1ccc(C=C(C(=O)Nc2ccccc2C(=O)O)C(=O)Nc2ccccc2C(=O)O)cc1` [Compound 37], the IC50 on hyaluronidase amounted to 17 µM.

For the molecule `Cc1ccc(NC(=O)C(=Cc2ccccc2)C(=O)Nc2ccc(C)cc2C(=O)O)c(C(=O)O)c1` [Compound 17], the IC50 at hyaluronidase is 142 µM.

As for `Cc1ccc(NC(=O)CC(=O)Nc2ccc(C)cc2C(=O)O)c(C(=O)O)c1` [Compound 07], on hyaluronidase, the IC10 was 0.66 mM and the IC20 turned out to be 0.72 mM.

Consider `O=C(Nc1ccc(C(=O)O)cc1)C(=Cc1ccccc1)C(=O)Nc1ccc(C(=O)O)cc1` [Compound 13], for which the IC50 at hyaluronidase came to 55 µM.

On to `O=C(CC(=O)Nc1cc(Cl)ccc1C(=O)O)Nc1cc(Cl)ccc1C(=O)O` [Compound 05], for which the IC10 on hyaluronidase was 1.32 mM.

As for `COc1cc(C=C(C(=O)Nc2ccccc2C(=O)O)C(=O)Nc2ccccc2C(=O)O)cc(OC)c1OC` [Compound 23], in assay [1] (id 100 mg/kg), the “Inhibition % Gastric Acidity” value turned out to be 32.5%, the “Inhibition % secretion amount of gastric juice” value (from here on “Inhibition % secretion amount”) came out at 8.5% and the “Inhibition % total pepsin titer” value was found to be 31.1%. Moreover, in assay [1] (id 200 mg/kg), the “Inhibition % Gastric Acidity” value is 40.2%, the “Inhibition % secretion amount” value is given as 11.2% and the “Inhibition % total pepsin titer” value is given as 41.2%. In addition, on hyaluronidase, the 50% inhibitory concentration (IC50) turned out to be 30 µM.

Take `CNC(=C[N+](=O)[O-])NCCSCc1ccc(CN(C)C)o1` [Ranitidine, reference compound]: in assay [1] (id 30 mg/kg), the “Inhibition % Gastric Acidity” value turned out to be 63.0%, the “Inhibition % secretion amount” value was 25.2% and the “Inhibition % total pepsin titer” value was 20.6%.

Regarding `CN(C)c1ccc(C=C(C(=O)Nc2ccccc2C(=O)O)C(=O)Nc2ccccc2C(=O)O)cc1` [Compound 28], on hyaluronidase, the concentration for half-maximal inhibition (IC50) stood at 110 µM.

For the molecule `COc1ccc(C(=O)O)cc1NC(=O)CC(=O)Nc1cc(C(=O)O)ccc1OC` [Compound 08], at hyaluronidase, the IC10 was 0.22 mM.

For `COc1ccc(C=C(C(=O)Nc2ccccc2C(=O)O)C(=O)Nc2ccccc2C(=O)O)cc1` [Compound 19], on hyaluronidase, the IC50 came to 13 µM.

For `O=C(Nc1ccccc1C(=O)O)C(=Cc1ccc(Br)cc1)C(=O)Nc1ccccc1C(=O)O` [Compound 33], the IC50 on hyaluronidase stood at 15 µM.

For the molecule `O=C(Nc1ccccc1C(=O)O)C(=Cc1ccccc1)C(=O)Nc1ccccc1C(=O)O`, the IC50 on hyaluronidase was 35 µM.

In the case of `Cc1ccc(C=C(C(=O)Nc2ccccc2C(=O)O)C(=O)Nc2ccccc2C(=O)O)cc1` [Compound 26, 2,2'-[[1,3-dioxo-2-(4-methyl)phenylmethylene-1,3-propanediyl]diimino]bisbenzoic acid], at hyaluronidase, the IC50 was 20 µM. In addition, the inhibition in vivo at 50 mg/kg in assay [2] (setting [3]) worked out at 8.3%; in assay [2] (setting [4]), 10%. Besides, the inhibition in vivo at 100 mg/kg came to 16.4% in assay [2] (setting [3]) and 19.1% in assay [2] (setting [4]).

Turning to `Cn1cccc1C=C(C(=O)Nc1ccccc1C(=O)O)C(=O)Nc1ccccc1C(=O)O` [Compound 43, 2,2'-[(1,3-dioxo-2-(1-methyl-1H-pyrrol-2-yl)methylene-1,3-propanediyl)diimino]bisbenzoic acid], on hyaluronidase, the IC50 was 40 µM.

Turning to `O=C(Nc1ccccc1C(=O)O)C(=Cc1ccc(C(F)(F)F)cc1)C(=O)Nc1ccccc1C(=O)O` [Compound 35], the concentration for half-maximal inhibition (IC50) on hyaluronidase was 15 µM.

Take `O=C(Nc1ccccc1C(=O)O)C(=Cc1cccc2ccccc12)C(=O)Nc1ccccc1C(=O)O` [Compound 38]: on hyaluronidase, the IC50 was found to be 23 µM.

For `O=C(Nc1ccccc1C(=O)O)C(=Cc1ccccc1Cl)C(=O)Nc1ccccc1C(=O)O` [Compound 32], the IC50 at hyaluronidase was 25 µM.

In the case of `O=C(Nc1ccccc1C(=O)O)C(=Cc1ccsc1)C(=O)Nc1ccccc1C(=O)O` [Compound 41, 2,2'-[(1,3-dioxo-2-(3-thienyl)methylene-1,3-propanediyl)diimino]bisbenzoicacid], the IC50 on hyaluronidase worked out at 60 µM.

On to `O=C(CC(=O)Nc1cc(Cl)ccc1C(=O)O)Nc1ccccc1C(=O)O` [Compound 09, 4-chloro-2,2'-[(1,3-dioxo-1,3propanediyl)diimino]bisbenzoic acid], for which the IC50 at hyaluronidase came out at 134 µM.

For `O=C(Nc1ccccc1C(=O)O)C(=Cc1ccco1)C(=O)Nc1ccccc1C(=O)O` [Compound 39], the IC50 at hyaluronidase stood at 40 µM.

As to `CC(C)c1ccc(C=C(C(=O)Nc2ccccc2C(=O)O)C(=O)Nc2ccccc2C(=O)O)cc1` [Compound 27], at hyaluronidase, the IC50 was determined as 30 µM.

Take `O=C(O)c1ccccc1NC(=O)C(Cc1ccccc1)C(=O)Nc1ccccc1C(=O)O` [Compound 50, 2,2'-[(1,3-dioxo-2-phenylmethyl-1,3-propanediyl)diimino]bisbenzoic acid]: the IC50 on hyaluronidase was found to be 50 µM.

As for `O=C(CC(=O)Nc1ccccc1C(=O)O)Nc1ccccc1C(=O)O` [Compound 01, 2,2'-[(1,3-dioxo-1.3-propanediyl)diimino]bisbenzoic acid], the IC50 at hyaluronidase amounted to 77 µM.

For the molecule `O=C(Nc1ccccc1C(=O)O)C(=Cc1ccc([N+](=O)[O-])cc1)C(=O)Nc1ccccc1C(=O)O` [Compound 36, 2,2'-[[1,3-dioxo-2-(4-nitro)phenylmethylene-1,3-propanediyl]diimino]bisbenzoic acid], the 50% inhibitory concentration (IC50) on hyaluronidase was 25 µM.

For the molecule `O=C(Nc1ccccc1C(=O)O)C(=Cc1cccs1)C(=O)Nc1ccccc1C(=O)O` [Compound 40, 2,2'-[[1,3-dioxo-2-{2-thienyl)methylene-1,3-propanediyl]diimino]bisbenzoicacid], the IC50 on hyaluronidase is 35 µM.

With `O=C(CC(=O)Nc1cccc(C(=O)O)c1)Nc1cccc(C(=O)O)c1` [Compound 02], the IC20 on hyaluronidase amounted to 0.9 mM.

For the molecule `O=C(Nc1ccccc1C(=O)O)C(=Cc1cccc(Cl)c1)C(=O)Nc1ccccc1C(=O)O` [Compound 31], the IC50 on hyaluronidase is 25 µM.

As to `O=C(Nc1ccccc1C(=O)O)C(=Cc1ccc[nH]1)C(=O)Nc1ccccc1C(=O)O` [Compound 42], on hyaluronidase, the IC50 amounted to 25 µM.

With `O=C(Nc1cccc(C(=O)O)c1)C(=Cc1ccccc1)C(=O)Nc1cccc(C(=O)O)c1` [Compound 12], on hyaluronidase, the IC50 came out at 65 µM.

Turning to `O=C(Nc1cc(Cl)ccc1C(=O)O)C(=Cc1ccccc1)C(=O)Nc1cc(Cl)ccc1C(=O)O` [Compound 15], the IC50 at hyaluronidase was found to be 55 µM.

With `O=C(Nc1ccccc1C(=O)O)C(=Cc1ccc2c(c1)OCO2)C(=O)Nc1ccccc1C(=O)O` [Compound 25], in assay [1] (id 100 mg/kg), the “Inhibition % Gastric Acidity” value is listed as 45.2%, the “Inhibition % secretion amount” value was determined as 25.5% and the “Inhibition % total pepsin titer” value was found to be 32.1%. Also, in assay [1] (id 200 mg/kg), the “Inhibition % Gastric Acidity” value is 80.0%, the “Inhibition % secretion amount” value is listed as 50.7% and the “Inhibition % total pepsin titer” value was 40.5%. In assay [1] (ip 50 mg/kg), the “Inhibition % Gastric Acidity” value stood at 67.4%, the “Inhibition % secretion amount” value amounted to 53.4% and the “Inhibition % total pepsin titer” value amounted to 82.2%. In addition, the IC50 on hyaluronidase was 13 µM.

With `O=C(Nc1ccccc1C(=O)O)C(=Cc1ccc(F)cc1)C(=O)Nc1ccccc1C(=O)O` [Compound 34], the IC50 on hyaluronidase worked out at 25 µM.

Source of the values: patent US4822791A, “Pharmaceutical compositions of-2,2-1,1-[bis-2,2'-(3,1-benzoxazin-4-one)9 ethylenes” (priority 1984, dated 1989).
